Data reported in patent US5760241A, “Thiol derivatives with metallopeptidase inhibitory activity” (priority 1996, dated 1998).
Counter-ions that a name gives are not always drawn.

Assays:
NEP (SHR kidneys) = test: Ex vivo NEP-inhibitory activity in kidneys of treated SHR; design: species or system spontaneously hypertensive rats (SHR)
Method: (§1) The ex vivo ACE/NEP-inhibitory activity of the compounds of formula I, in particular, was evaluated by considering the enzymatic activity in tissue homogenates (lung and kidney for the ACE- and NEP-inhibitory activity, respectively) from spontaneously hypertensive rats (SHR), treated with the tested compounds by intravenous or oral route.
(§2) a) NEP-inhibitory activity
The ex vivo NEP-inhibitory activity was evaluated according to the procedure reported in the literature by M. Orlowsky et al., in Biochemistry 1981, 20, 4942-4950.
The inhibitory activity of the compounds of formula I was evaluated in kidneys of spontaneously hypertensive rats (SHR), 5 minutes after i.v. injection (0.6, 0.64 and 21 μmoles/kg) and 30 minutes, 60 minutes and 4 hours after oral administration (30 μmoles/kg) of the tested compounds.
After the removal of the kidneys from SHR, the renal tissue was homogenized and incubated for 15 minutes at 37° C. in the presence of Glutaryl-Ala-Ala-Phe-2-naphthylamide (GAAP), as a substrate, and aminopeptidase M at pH 7.6.
The reaction was stopped by adding an aqueous solution at 10% of trichloroacetic acid.
The released 2-naphthylamine was determined by adding fast garnet dye (2 ml).
Enzyme reaction rates were determined by measuring the increase in the optical density at 524 nm (OD524) with respect to a standard obtained with 2-naphthylamine complexed with fast garnet.
The NEP-inhibitory activity of the tested compounds was expressed as percentage of NEP-inhibition in SHR kidneys.
(§3) As an example, the percentages of basal enzymatic activity obtained in the ex vivo tests after the administration of compounds 29 and 41, as representative compounds of formula I, and of the comparison compounds R-1, R-2, R-3 and R-4 are reported in the following table 2.

ACE (SHR lungs) = test: Ex vivo ACE-inhibitory activity in lungs of treated SHR; design: species or system spontaneously hypertensive rats (SHR)
Method: as §1
(§4) b) ACE-inhibitory activity
The ex vivo ACE-inhibitory activity was evaluated by using a radiometric assay method, as reported in the literature by J. W. Ryan et al. in Biochem. J. (1977), 167, 501-504.
The inhibitory activity of the compounds of formula I was evaluated in lungs of spontaneously hypertensive rats (SHR), 5 minutes after i.v. injection (0.6, 0.64 and 21 μmoles/kg) and 30 minutes, 60 minutes and 4 hours after oral administration (30 μmoles/kg) of the tested compounds.
After the removal of the lungs from SHR, the lung tissue was homogenized and incubated for 2 hours at 37° C. in the presence of [^3 H]Hyp-Gly-Gly, as a substrate.
The reaction was stopped by adding hydrochloric acid.
The released radiolabelled hyppuric acid was extracted with ethyl acetate and counted by liquid scintillation spectrometry, according to conventional methods.
The ACE-inhibitory activity of the tested compounds was expressed as percentage of ACE-inhibition in SHR lungs.
as §3

[1] = target: T1, NEP (membranes from rat kidney cortex) (Rattus norvegicus, UniProt P07861); test: In vitro NEP-inhibitory activity in rat kidney cortex membranes ([3H][Leu5]-enkephaline substrate); format: biochemical, male Sprague-Dawley rats; conditions: 20 minutes at 30° C.; [3H][Leu5]-enkephaline 15 nM
T1 construct: from tissue; host or cells: kidney cortex membranes of male Sprague-Dawley rats
T1 sequence (P07861 1-750): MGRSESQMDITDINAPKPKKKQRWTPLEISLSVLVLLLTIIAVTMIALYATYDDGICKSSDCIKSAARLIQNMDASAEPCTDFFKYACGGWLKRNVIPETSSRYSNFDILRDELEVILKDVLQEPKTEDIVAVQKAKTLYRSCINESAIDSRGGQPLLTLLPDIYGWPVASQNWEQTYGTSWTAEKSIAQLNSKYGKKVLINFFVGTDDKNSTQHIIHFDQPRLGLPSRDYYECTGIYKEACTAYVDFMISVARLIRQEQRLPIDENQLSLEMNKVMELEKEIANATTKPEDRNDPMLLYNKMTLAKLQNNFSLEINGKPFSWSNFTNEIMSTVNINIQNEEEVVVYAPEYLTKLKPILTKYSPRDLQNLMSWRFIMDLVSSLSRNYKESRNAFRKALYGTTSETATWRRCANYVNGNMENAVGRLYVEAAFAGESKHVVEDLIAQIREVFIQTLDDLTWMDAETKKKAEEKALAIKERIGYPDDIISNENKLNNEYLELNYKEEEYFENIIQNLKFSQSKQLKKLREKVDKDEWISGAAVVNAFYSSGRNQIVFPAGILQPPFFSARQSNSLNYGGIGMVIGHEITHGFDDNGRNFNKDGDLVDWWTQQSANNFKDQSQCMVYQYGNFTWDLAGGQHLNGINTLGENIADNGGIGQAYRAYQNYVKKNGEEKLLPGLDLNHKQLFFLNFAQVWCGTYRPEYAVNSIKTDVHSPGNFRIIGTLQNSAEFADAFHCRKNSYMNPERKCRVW
Method: as §2
The NEP-inhibitory activity was evaluated in membranes from rat kidney cortex prepared according to the procedure described by T. Maeda et al. in Biochim. Biophys. Acta 1983, 731(1), 115-120.
By working at 0°-4° C., kidneys were removed from male Sprague-Dawley rats weighing approximately 300 g.
Cortex was carefully dissected, finely minced and suspended in a homogenization buffer (10 mM sodium phosphate pH 7.4 containing 1 mM MgCl2, 30 mM NaCl, 0.02% NaN3) 1:15 weight/volume.
The tissue was then homogenized for 30 seconds using an Ultra-Turrax homogenizer.
Approximately 10 ml of homogenate were layered over 10 ml of sucrose (41% weight/volume) and centrifuged at 31200 rpm for 30 minutes at 4° C. in a fixed angle rotor. The membranes were collected from the buffer/sucrose interface, washed twice with 50 mM TRIS/HCl buffer (pH 7.4) and resuspended into the same buffer for storage.
The membranes were stored in small aliquots at -80° C. until use.
The NEP-inhibitory activity was evaluated according to the method described by C. Llorens et al., in Eur. J. Pharmacol., 69, (1981), 113-116, as reported hereinafter.
Aliquots of the membrane suspension prepared as above described (concentration 5 μg/ml of proteins) were preincubated in the presence of an aminopeptidase inhibitory (Bestatin--1 mM) for 10 minutes at 30° C.
[^3 H][Leu^5 ]-enkephaline (15 nM) and buffer TRIS/HCl pH 7.4 (50 mM) were added in order to obtain a final volume of 100 μl.
Incubation (20 minutes at 30° C.) was stopped by adding HCl 0.1M (100 μl).
The formation of the metabolite [^3 H]Tyr-Gly-Gly was quantified by chromatography on polystyrene columns (Porapak Q).

[2] = target: T2, ACE (purified by lung rabbit, EC 3.4.15.1) (Oryctolagus cuniculus, UniProt P12822); test: In vitro ACE-inhibitory activity (FAPGG substrate, spectrophotometric); format: biochemical; conditions: 37° C.; FAPGG 0.8 mM
T2 construct: purchased SIGMA; host or cells: rabbit lung
T2 sequence (P12822 34-1310): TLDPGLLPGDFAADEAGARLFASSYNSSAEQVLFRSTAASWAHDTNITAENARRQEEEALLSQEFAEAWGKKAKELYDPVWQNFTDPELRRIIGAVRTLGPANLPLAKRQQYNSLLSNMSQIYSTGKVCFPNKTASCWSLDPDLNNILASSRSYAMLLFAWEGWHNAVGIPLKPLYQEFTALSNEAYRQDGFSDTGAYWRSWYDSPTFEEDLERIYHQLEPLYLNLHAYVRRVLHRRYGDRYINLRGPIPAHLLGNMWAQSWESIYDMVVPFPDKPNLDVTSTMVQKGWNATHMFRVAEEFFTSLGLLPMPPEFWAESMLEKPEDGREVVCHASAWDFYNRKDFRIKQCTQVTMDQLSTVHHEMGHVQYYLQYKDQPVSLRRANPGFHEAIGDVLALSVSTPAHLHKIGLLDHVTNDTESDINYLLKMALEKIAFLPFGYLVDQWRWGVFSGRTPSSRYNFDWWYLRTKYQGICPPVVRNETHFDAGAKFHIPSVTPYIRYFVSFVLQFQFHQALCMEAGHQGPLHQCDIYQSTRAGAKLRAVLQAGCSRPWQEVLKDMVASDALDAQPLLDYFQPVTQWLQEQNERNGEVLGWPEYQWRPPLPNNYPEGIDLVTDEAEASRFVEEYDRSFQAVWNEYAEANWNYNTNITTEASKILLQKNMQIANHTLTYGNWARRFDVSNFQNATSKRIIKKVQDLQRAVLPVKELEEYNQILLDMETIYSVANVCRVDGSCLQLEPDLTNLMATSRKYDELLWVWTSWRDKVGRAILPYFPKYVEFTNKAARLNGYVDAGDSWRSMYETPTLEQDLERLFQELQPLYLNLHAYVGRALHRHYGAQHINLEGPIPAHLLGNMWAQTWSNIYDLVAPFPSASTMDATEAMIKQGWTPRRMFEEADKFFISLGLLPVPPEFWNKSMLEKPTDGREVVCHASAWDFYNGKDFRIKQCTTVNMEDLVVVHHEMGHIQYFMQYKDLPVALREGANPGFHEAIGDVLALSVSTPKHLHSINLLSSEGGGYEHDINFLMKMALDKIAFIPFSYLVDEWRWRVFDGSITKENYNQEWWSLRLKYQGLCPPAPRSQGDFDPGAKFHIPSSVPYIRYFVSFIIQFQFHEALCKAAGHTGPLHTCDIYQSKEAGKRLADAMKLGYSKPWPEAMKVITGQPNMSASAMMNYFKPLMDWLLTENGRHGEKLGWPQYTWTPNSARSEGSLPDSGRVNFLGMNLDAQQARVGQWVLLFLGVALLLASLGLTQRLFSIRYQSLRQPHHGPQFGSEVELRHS
Method: as §4
The ACE-inhibitory activity was evaluated according to the method reported in the literature by B. Holmquist et al., in Analytical Biochemistry 95, 540-548 (1979).
[…] of ACE (250 mU/ml purified by lung rabbit, EC 3.4.15.1 SIGMA) were preincubated with 50 μl of the compound of formula I or of the comparison compound in thermostated cuvettes at 37° C.
The reaction was started by adding furylacryloylphenylalanylglycylglycine 0.8 mM (FAPGG-SIGMA).
Contemporaneously, by using a Beckman DU-50 spectrophotometer provided with a program for calculating delta A/minutes and regression coefficients of the enzyme kinetics curves, the absorbance at 340 nm was recorded in continuo for 5 minutes.
The percentage of the enzyme inhibition in the preparations treated with the compounds of formula I or with the comparative compounds with respect to the untreated preparations was expressed as IC50 (nM) value.

| IC50 [1] | IC50 [2] | SMILES | NEP-inhibition (kidneys), 30 minutes (NEP (SHR kidneys); oral 30 μmoles/kg) | NEP-inhibition (kidneys), 4 hours (NEP (SHR kidneys); oral 30 μmoles/kg) | ACE-inhibition (lungs), 30 minutes (ACE (SHR lungs); oral 30 μmoles/kg) | ACE-inhibition (lungs), 4 hours (ACE (SHR lungs); oral 30 μmoles/kg) | further results |
| --- | --- | --- | --- | --- | --- | --- | --- |
|  |  | CC(CS)C(=O)N[C@@H](Cc1ccc(O)cc1)C(=O)O (stereo partly drawn) [R-3, N-(3-mercapto-2-methylpropanoyl)-L-tyrosine] | 10% | 5% | 25% | 20% |  |
| 6.1 nM | 25.3 nM | O=C(N[C@@H](Cc1ccc(-c2ccccc2)cc1)C(=O)O)[C@H](CS)Cc1ccccc1 [compound 47, N-[(2R)-2-mercaptomethyl-3-phenylpropionyl]-(1,1'-biphenyl-4-yl)-L-alanine] |  |  |  |  |  |
| 1.8 nM | 2.6 nM | O=C(N[C@@H](Cc1ccc(-c2ccccc2)cc1)C(=O)O)[C@@H](CS)Cc1ccccc1 [compound 46, N-[(2S)-2-mercaptomethyl-3-phenylpropionyl]-(1,1'-biphenyl-4-yl)-L-alanine] |  |  |  |  |  |
| 13 nM | 2 nM | O=C(N[C@@H](Cc1ccc(-c2ccccc2)cc1)C(=O)O)C(CS)Cc1cccnc1 (single isomer, unassigned) [compound 51, N-[2-mercaptomethyl-3-(3-pyridyl)propionyl]-(1,1'-biphenyl-4-yl)-L-alanine hydrochloride] |  |  |  |  |  |
|  |  | O=C(N[C@@H](Cc1ccc(O)cc1)C(=O)O)C(CS)Cc1ccc2c(c1)OCO2 (stereo partly drawn) [R-2, N-[3-mercapto-2-(3,4-methylenedioxyphenyl)methyl-propionyl]-(S)-tyrosine] | 30% | not active | 30% | 25% |  |
|  |  | O=C(N[C@@H](Cc1ccccc1)C(=O)O)C(CS)Cc1ccc2c(c1)OCO2 (stereo partly drawn) [R-1, N-[3-mercapto-2-(3,4-methylenedioxyphenyl)methyl-propionyl]-(S)-phenylalanine] | 5% | not active | 25% | 20% |  |
|  |  | CC(CS)C(=O)N[C@@H](Cc1c[nH]c2ccccc12)C(=O)O (stereo partly drawn) [R-4, N-(3-mercapto-2-methylpropanoyl)-L-triptophan] | not active | not active | 25% | 10% |  |
|  |  | O=C(N[C@@H](Cc1ccc(-c2nccs2)cc1)C(=O)O)[C@@H](CS)Cc1ccccc1 [compound 29, N-[(2S)-3-mercapto-2-phenylmethylpropionyl]-4-(2-thiazolyl)-L-phenylalanine] | 55% | 40% | 60% | 45% | NEP-inhibition (kidneys), 5 minutes (NEP (SHR kidneys); i.v. 0.6 μmoles/kg): 34%; NEP-inhibition (kidneys), 5 minutes (NEP (SHR kidneys); i.v. 21 μmoles/kg): 49%; NEP-inhibition (kidneys), 60 minutes (NEP (SHR kidneys); oral 30 μmoles/kg, 60 minutes): 39%; ACE-inhibition (lungs), 5 minutes (ACE (SHR lungs); i.v. 0.6 μmoles/kg): 15%; ACE-inhibition (lungs), 5 minutes (ACE (SHR lungs); i.v. 21 μmoles/kg): 72%; ACE-inhibition (lungs), 60 minutes (ACE (SHR lungs); oral 30 μmoles/kg, 60 minutes): 36% |
